According to BindingDB's records for doi:10.1021/jm00099a026 (Smithkline Beecham Pharmaceuticals, 1992):

Test: Inhibition of ADP-induced platelet aggregation in canine platelet-rich plasma

IC50 [µM]	Compound
4.12	CC(=O)N[C@@H](CS)C(=O)N[C@@H](CCCN=C(N)N)C(=O)NCC(=O)N[C@@H](CC(=O)O)C(=O)N[C@@H](C(N)=O)C(C)(C)S
76.6	N=C(N)NCCC[C@@H]1NC(=O)[C@@H]2CCCN2C(=O)CNC(=O)[C@H]2CCCN2C(=O)[C@H](CC(=O)O)NC(=O)CNC1=O
17.7	N=C(N)NCCC[C@@H]1NC(=O)[C@@H]2CCCN2C(=O)[C@@H](Cc2ccccc2)NC(=O)CNC(=O)[C@H](CC(=O)O)NC(=O)CNC1=O
5.26	N=C(N)NCCC[C@@H]1NC(=O)[C@@H]2CCCN2C(=O)[C@H]2CCCN2C(=O)CNC(=O)[C@H](CC(=O)O)NC(=O)CNC1=O
1.79	CC(=O)N[C@@H](CS)C(=O)N(C)[C@H](CCCN=C(N)N)C(=O)NCC(=O)N[C@@H](CC(=O)O)C(=O)N[C@H](C(N)=O)C(C)(C)S
0.09	CN(C(=O)c1ccccc1S)[C@@H](CCCNC(=N)N)C(=O)NCC(=O)N[C@@H](CC(=O)O)C(=O)Nc1ccccc1S
20.3	CC(=O)N[C@@H](CS)C(=O)N[C@@H](CCCNC(=N)N)C(=O)NCC(=O)N[C@@H](CC(=O)O)C(=O)N[C@H](C(N)=O)C(C)(C)S
0.355	CC(=O)N[C@@H](CS)C(=O)N(C)[C@@H](CCCN=C(N)N)C(=O)NCC(=O)N[C@@H](CC(=O)O)C(=O)N[C@H](C(N)=O)C(C)(C)S
10.1	C[C@H](NC(=O)[C@H](CS)NC(=O)[C@@H]1CCCN1C(=O)[C@H](CO)NC(=O)[C@H](CC(=O)O)NC(=O)CNC(=O)[C@H](CCCNC(=N)N)NC(=O)CNC(=O)[C@@H](NC(=O)CN)C(C)(C)S)C(=O)O
4.1	CC(=O)N[C@@H](CS)C(=O)N[C@H](CCCN=C(N)N)C(=O)NCC(=O)N[C@@H](CC(=O)O)C(=O)N[C@H](C(N)=O)C(C)(C)S
